Results published in patent publication US4117136A, “Systemic antimicrobial quinolines for plant disease” (Sumitomo Chemical Company, Ltd., priority 1976, dated 1978).
In brackets after ≈: the same amount, converted by molar mass. Where a name gives a salt, the structure may show the parent alone. Read-outs that look alike come from different tables or passages of the source.

Experiments:
Pseudomonas solanacearum = type: in vivo, Pseudomonas solanacearum (on tomato, Sekai Ichi); conditions: soil application, one day after inoculation, assessed after additional 10 days
Xanthomonas oryzae = type: in vivo, Xanthomonas oryzae (on rice plant, Kinki #33); conditions: spray, 500 ppm, 4 hours before inoculation, 7 days, bacterial-exudation method
Pseudomonas lachrymans = assay: Disease prevention effect on angular leaf spot of cucumber; type: in vivo, Pseudomonas lachrymans (on cucumber, Cucumis sativus L.); conditions: spray, 4 hours before inoculation
Experimental: Four hours after the application of the sample, a suspension of Pseudomonas lachrymans was inoculated by spraying on the plant. […] Incidence of disease was assessed in the following manner. […] |______________________________________ |______________________________________ |0 Healthy […] |3 26-50% diseased spot areas […] | [drawing 22] Five plants were used for each treatment.

P. lachrymans = assay: Controlling angular leaf spot of cucumber by seed treatment; conditions: grown 2 weeks
E. carotovora = assay: Antibacterial activity against E. carotovora (agar dilution MIC); conditions: for MIC: Pectobacterium carotovorum, 72 h, read-out: MIC (minimum inhibitory concentration); for antibacterial activity: result in words, in vitro, Erwinia carotovora
Erwinia carotovora = assay: Plant systemic activity (root immersion, Chinese cabbage); conditions: roots immersed, 10 ppm, inoculated after 2 days
[1] = inoculated seeds soaked 30 minutes, 500 ppm

CCn1cc(C(=O)OC)c(=O)c2cc3c(cc21)OCO3 [(2)]
Ratio of Diseased Seedling (Pseudomonas solanacearum; 500 ppm): 36%
Severity of Disease (Xanthomonas oryzae): 0%
Severity of Disease (Pseudomonas lachrymans; 500 ppm): 25%
Infected Plants (P. lachrymans; [1]): 0%
MIC (E. carotovora): > 50 mg/L
antibacterial activity (E. carotovora): very weak antibacterial activity
Severity of Disease (Erwinia carotovora): 0%

OCl [Sodium Hypochlorite, reference compound]
Infected Plants (P. lachrymans; inoculated seeds soaked 30 minutes, 2,000 ppm): 7.5%

C=Cn1cc(C(=O)O)c(=O)c2cc3c(cc21)OCO3 [Compound (4)]
Ratio of Diseased Seedling (Pseudomonas solanacearum; 500 ppm): 6%
Severity of Disease (Xanthomonas oryzae): 0%
Severity of Disease (Pseudomonas lachrymans; 500 ppm): 4.6%
Infected Plants (P. lachrymans; [1]): 0%
MIC (E. carotovora): 0.78 mg/L (≈ 3.01 µM)
Severity of Disease (Erwinia carotovora): 0%

C=Cn1cc(C(=O)O)c(=O)c2cc3c(cc21)OCO3 [(13)]
Ratio of Diseased Seedling (Pseudomonas solanacearum; 500 ppm): 4%
Severity of Disease (Xanthomonas oryzae): 0%
Severity of Disease (Pseudomonas lachrymans; 500 ppm): 2.4%
Infected Plants (P. lachrymans; [1]): 0%
MIC (minimum inhibitory concentration) (E. carotovora; agar culture medium, 3 days at 27° C): 0.78 mg/L (≈ 3.01 µM)
Severity of Disease (Erwinia carotovora): 0%

COn1cc(C(=O)O)c(=O)c2c3sc(=O)n(C)c3ccc21 [(10)]
MIC (E. carotovora): 0.049 mg/L (≈ 0.16 µM)
Severity of Disease (Erwinia carotovora): 25%

O=C(O)c1cn(CCCl)c2cc3c(cc2c1=O)OCO3 [Compound (9)]
Ratio of Diseased Seedling (Pseudomonas solanacearum; 500 ppm): 14%
Severity of Disease (Xanthomonas oryzae): 0%
Severity of Disease (Pseudomonas lachrymans; 500 ppm): 19%
MIC (E. carotovora): 1.56 mg/L (≈ 5.28 µM)
Severity of Disease (Erwinia carotovora): 0%

CCn1cc(C(=O)O)c(=O)c2cc3c(cc21)OCO3 [Compound (1)]
Ratio of Diseased Seedling (Pseudomonas solanacearum; 500 ppm): 10%
Severity of Disease (Xanthomonas oryzae): 0%
Severity of Disease (Pseudomonas lachrymans; 500 ppm): 7.9%
Infected Plants (P. lachrymans; [1]): 0%
MIC (E. carotovora): 1.56 mg/L (≈ 5.97 µM)
Severity of Disease (Erwinia carotovora): 0%

COn1cc(C(=O)O)c(=O)c2cc3c(cc21)OCO3 [(3)]
MIC (E. carotovora): 0.39 mg/L (≈ 1.48 µM)

CCOC(=O)c1cn(CCF)c2cc3c(cc2c1=O)OCO3 [(8)]
Ratio of Diseased Seedling (Pseudomonas solanacearum; 500 ppm): 24%
Severity of Disease (Xanthomonas oryzae): 0%
Severity of Disease (Pseudomonas lachrymans; 500 ppm): 21%
Infected Plants (P. lachrymans; [1]): 0%
MIC (E. carotovora): > 50 mg/L
antibacterial activity (E. carotovora): very weak antibacterial activity
Severity of Disease (Erwinia carotovora): 0%

CCn1cc(C(=O)O)c(=O)c2ccc(C)nc21 [Nalidixic acid, nalidixic acid, reference compound]
MIC (E. carotovora): 6.25 mg/L (≈ 26.9 µM)

O=C(O)c1cn(CCF)c2cc3c(cc2c1=O)OCO3 [Compound (7)]
Ratio of Diseased Seedling (Pseudomonas solanacearum; 500 ppm): 18%
Severity of Disease (Xanthomonas oryzae): 0%
Severity of Disease (Pseudomonas lachrymans; 500 ppm): 12%
Infected Plants (P. lachrymans; [1]): 0%
MIC (E. carotovora): 0.78 mg/L (≈ 2.79 µM)
Severity of Disease (Erwinia carotovora): 0%

O=C(O)c1cn(CC(F)(F)F)c2cc3c(cc2c1=O)OCO3 [(6)]
MIC (E. carotovora): 3.12 mg/L (≈ 9.9 µM)

[H]/N=C(/N)N[C@H]1[C@H](O)[C@@H](O)[C@H](O[C@@H]2O[C@@H](C)[C@](O)(C=O)[C@H]2O[C@@H]2O[C@@H](CO)[C@H](O)[C@@H](O)[C@@H]2NC)[C@@H](N/C(N)=N\[H])[C@@H]1O [Streptomycin Sulfate, reference compound]
Ratio of Diseased Seedling (Pseudomonas solanacearum; 200 ppm): 86%
Severity of Disease (Pseudomonas lachrymans; 200 ppm): 28%
Infected Plants (P. lachrymans; inoculated seeds soaked 30 minutes, 200 ppm): 26.5%
Severity of Disease (Erwinia carotovora): 31%

CCn1c(C)c(C(=O)O)c(=O)c2cc3c(cc21)OCO3 [(11)]
MIC (E. carotovora): > 50 mg/L
antibacterial activity (E. carotovora): very weak antibacterial activity
